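These data come from cells grown in 96-well plates and exposed to compound for 48 hours at five concentrations. GI50 = concentration required for 50% inhibition of growth.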 Activity calls are given as the source filed them. Cut-off read from the data, not from the text of the source: active = GI50 up to about 1.1 µM and inactive = higher.
Key:
Experiment in all cases: DTP human tumour cell line panel, 48 h
[1] = system: UACC-62
[2] = system: SF-295
[3] = system: IGROV-1
[4] = system: SNB-19
[5] = system: HL-60
[6] = system: 786-0
[7] = system: CAKI-1
[8] = system: HOP-92
[9] = system: SNB-75
[10] = system: U-251
[11] = system: CCRF-CEM
[12] = system: NCI-H23
[13] = system: HCC 2998
[14] = system: KM12
[15] = system: SR
[16] = system: OVCAR-8
[17] = system: SK-OV-3
[18] = system: M14
[19] = system: TK-10
[20] = system: NCI-H226

Measured: GI50

CC12CCC(O)CC1CCC1C2CCC2(C)C(C(=O)CC(O)C(F)(F)F)CCC12 (stereo not given)
active: [15] 0.289 µM
inactive: [1] 52.2 µM | [2] 8.73 µM | [3] > 67.8 µM | [4] 24.9 µM | [5] 9.02 µM | [6] 7.46 µM | [7] 21 µM | [8] 31.8 µM | [9] 19.3 µM | [10] 26.2 µM | [11] 25.6 µM | [12] 40.9 µM | [13] 21.6 µM | [14] 17.1 µM | [16] 55.7 µM | [17] 27 µM | [18] 20.8 µM | [19] 53.7 µM | [20] 40 µM

CN(C)C(=S)SCC(N)=O
active: [9] < 0.01 µM
inactive: [1] > 100 µM | [2] > 100 µM | [3] > 100 µM | [4] > 100 µM | [5] > 100 µM | [6] > 100 µM | [7] > 100 µM | [8] > 100 µM | [10] > 100 µM | [11] > 100 µM | [12] > 100 µM | [13] > 100 µM | [14] > 100 µM | [15] > 100 µM | [16] > 100 µM | [17] > 100 µM | [18] > 100 µM | [19] > 100 µM | [20] 45.3 µM

CCCCCCNC(=O)C1=C(C)NC(C)=C(C(=O)NCCCCCC)C1
inactive: [1] > 100 µM | [2] > 100 µM | [3] > 100 µM | [4] > 100 µM | [5] 31 µM | [6] > 100 µM | [7] > 100 µM | [8] 73.3 µM | [9] 51.9 µM | [10] > 100 µM | [11] 70.3 µM | [12] > 100 µM | [13] > 100 µM | [14] > 100 µM | [15] 83 µM | [16] > 100 µM | [17] > 100 µM | [18] > 100 µM | [19] > 100 µM | [20] > 100 µM

CCOP(=O)(OCC)C(Cc1c[nH]c2ccccc12)C(=O)O (stereo not given)
inactive: [2] > 100 µM | [3] > 100 µM | [4] > 100 µM | [5] > 100 µM | [7] > 100 µM | [8] > 100 µM | [9] > 100 µM | [10] > 100 µM | [11] > 100 µM | [12] > 100 µM | [13] > 100 µM | [15] > 100 µM | [16] > 100 µM | [17] > 100 µM | [18] > 100 µM | [19] > 100 µM | [20] > 100 µM

C=C(Nc1ccc(OC)cc1OC)C(=O)Cc1cccc[n+]1[O-]
inactive: [1] > 100 µM | [2] > 100 µM | [3] > 100 µM | [4] > 100 µM | [5] > 100 µM | [6] > 100 µM | [7] > 100 µM | [8] > 100 µM | [9] > 100 µM | [10] > 100 µM | [11] > 100 µM | [12] > 100 µM | [13] > 100 µM | [14] > 100 µM | [15] > 100 µM | [16] > 100 µM | [17] > 100 µM | [18] > 100 µM | [19] > 100 µM | [20] > 100 µM

C[C@@H]1O[C@]2(O)[C@@H]3CCCN3S(=O)(=O)CCN2C1=O
inactive: [1] > 100 µM | [2] > 100 µM | [3] > 100 µM | [4] > 100 µM | [5] > 100 µM | [6] > 100 µM | [7] > 100 µM | [8] > 100 µM | [9] > 100 µM | [10] > 100 µM | [11] > 100 µM | [12] > 100 µM | [13] > 100 µM | [14] > 100 µM | [15] > 100 µM | [16] > 100 µM | [17] > 100 µM | [18] > 100 µM | [19] > 100 µM | [20] > 100 µM

Fc1cccc(CSc2ncnc3c2ncn3C2CCCS2)c1 (stereo not given)
inactive: [1] 13.1 µM | [2] 18.2 µM | [3] 22.4 µM | [4] 36.2 µM | [5] 8.83 µM | [6] 20.7 µM | [7] 37.1 µM | [8] 24.2 µM | [9] 17.6 µM | [10] 10.5 µM | [11] 8.49 µM | [12] 23.9 µM | [13] 21.9 µM | [14] 15.4 µM | [15] 3.94 µM | [16] 20.8 µM | [17] 38.5 µM | [18] 18.1 µM | [19] 30.6 µM | [20] 29.2 µM

C[C@]12CC[C@H](O[C@@H]3O[C@H](CO[C@@H]4O[C@H](CO)[C@@H](O)[C@H](O)[C@H]4O)[C@@H](O)[C@H](O)[C@H]3O)C[C@@H]1CC[C@@H]1[C@@H]2CC[C@]2(C)[C@@H](C3=CC(=O)OC3)CC[C@]12O [UZARIN]
inactive: [1] 33.7 µM | [2] 17.3 µM | [3] 10.7 µM | [4] 38.9 µM | [5] 20.2 µM | [6] 43.6 µM | [7] 13.7 µM | [8] 29.4 µM | [9] 28.4 µM | [10] 39.7 µM | [11] 4.07 µM | [12] 11.1 µM | [13] 21.9 µM | [14] 47.8 µM | [15] 6.25 µM | [16] 31.8 µM | [17] 35.3 µM | [18] 24.8 µM | [19] 18.8 µM | [20] 42.2 µM

COc1cc2c(cc1O)CC[C@@H]1C2CC[C@@]2(C)C1CC[C@@H]2O (stereo not given in full)
inactive: [1] 1.21 µM | [2] 3.16 µM | [3] 5.51 µM | [4] 16.3 µM | [6] 2.07 µM | [7] 13.5 µM | [8] 10.7 µM | [10] 1.16 µM | [12] 2.05 µM | [13] 9.62 µM | [14] 4.43 µM | [16] 2 µM | [17] 3.22 µM | [19] 14 µM | [20] 48.5 µM
active: [5] 0.47 µM | [9] 1.07 µM | [11] 0.689 µM | [15] 0.073 µM | [18] 0.91 µM

COC(=O)C(=O)C(C(=O)OC)C(=O)C(=O)Nc1cc(Cl)c(Cl)cc1Cl (stereo not given)
inactive: [1] > 100 µM | [2] > 100 µM | [3] > 100 µM | [4] > 100 µM | [5] > 100 µM | [6] > 100 µM | [7] > 100 µM | [8] > 100 µM | [9] > 100 µM | [10] > 100 µM | [11] 31.6 µM | [12] > 100 µM | [13] > 100 µM | [14] > 100 µM | [15] 24.8 µM | [16] > 100 µM | [17] > 100 µM | [18] > 100 µM | [19] > 100 µM | [20] > 100 µM

CC(=O)c1cccc(NC(=O)C(=O)C(C(=O)c2ccccc2F)C2OC(=O)c3ccccc32)c1 (stereo not given)
inactive: [1] 34.6 µM | [2] 42.6 µM | [3] 74.8 µM | [4] 32.1 µM | [5] 24 µM | [7] 65.3 µM | [8] > 100 µM | [9] 25.8 µM | [10] 19.8 µM | [11] 14.8 µM | [12] 33.8 µM | [13] 24.1 µM | [14] 39.7 µM | [15] 9.2 µM | [16] 31.8 µM | [17] 35.4 µM | [18] 92.7 µM | [19] > 100 µM | [20] 19.1 µM

O=C1CSC(c2ccc(Cl)cc2Cl)N1c1ccc(Oc2ccc(Cl)cc2)c(Cl)c1 (stereo not given)
inactive: [1] 21.9 µM | [2] 22 µM | [3] 28.1 µM | [4] 23.6 µM | [5] 16.4 µM | [6] 17.5 µM | [7] 22.4 µM | [8] 21.8 µM | [9] 20.7 µM | [10] 31.8 µM | [11] 13.5 µM | [12] 27 µM | [13] 31 µM | [14] 20.2 µM | [15] 16.3 µM | [16] 29.9 µM | [17] 30.7 µM | [18] 23.9 µM | [19] 51.4 µM | [20] 22.1 µM

CNNC(=NS(=O)(=O)c1cc(C#N)c(NNC)cc1S)NNC
inactive: [2] > 10 µM | [3] > 10 µM | [4] > 10 µM | [5] > 10 µM | [6] > 10 µM | [7] > 10 µM | [8] > 10 µM | [9] > 10 µM | [10] > 10 µM | [11] > 10 µM | [12] > 10 µM | [13] > 10 µM | [14] > 10 µM | [15] > 10 µM | [16] > 10 µM | [17] > 10 µM | [18] > 10 µM | [19] > 10 µM | [20] > 10 µM

O=C1/C(=C/c2ccccc2)CCC/C1=C\c1ccccc1 [2,6-DIBENZYLIDENECYCLOHEXANONE]
inactive: [1] 13.2 µM | [2] 10.4 µM | [3] 13 µM | [4] 14.6 µM | [5] 2.8 µM | [6] 12.8 µM | [7] 23.4 µM | [8] 17.5 µM | [9] 20.2 µM | [10] 5.82 µM | [11] 4.12 µM | [12] 12.8 µM | [13] 12.2 µM | [14] 2.52 µM | [15] 9.71 µM | [16] 8.26 µM | [17] 21.4 µM | [18] 6.44 µM | [19] 17.8 µM | [20] 18.7 µM

Reference: ChEMBL document CHEMBL1201862, “PubChem BioAssay data set” (2004)
